Values of other authors, collected in patent US9949922B2, “Silica hydrogel composite” (DELSITECH OY, priority 2013, dated 2018).

Details: nimodipine value from DrugBank

Question: With `O=C1OC2(c3ccc(O)cc3Oc3cc(O)ccc32)c2ccccc21` [Fluorescein] as the compound, how does the Water solubility read?
Answer: The Water solubility was 800 µg/mL.
